Results on 48 compounds are retold here after patent publication US8653087B2, “Pyrido [5, 4-D] pyrimidines as cell proliferation inhibitors” (Boehringer Ingelheim International GmbH, priority 2008, dated 2014).

pIC50: −log10 of the molar value.

Sequence of B-Raf (V600E)-kinase (P15056 whole entry V600E): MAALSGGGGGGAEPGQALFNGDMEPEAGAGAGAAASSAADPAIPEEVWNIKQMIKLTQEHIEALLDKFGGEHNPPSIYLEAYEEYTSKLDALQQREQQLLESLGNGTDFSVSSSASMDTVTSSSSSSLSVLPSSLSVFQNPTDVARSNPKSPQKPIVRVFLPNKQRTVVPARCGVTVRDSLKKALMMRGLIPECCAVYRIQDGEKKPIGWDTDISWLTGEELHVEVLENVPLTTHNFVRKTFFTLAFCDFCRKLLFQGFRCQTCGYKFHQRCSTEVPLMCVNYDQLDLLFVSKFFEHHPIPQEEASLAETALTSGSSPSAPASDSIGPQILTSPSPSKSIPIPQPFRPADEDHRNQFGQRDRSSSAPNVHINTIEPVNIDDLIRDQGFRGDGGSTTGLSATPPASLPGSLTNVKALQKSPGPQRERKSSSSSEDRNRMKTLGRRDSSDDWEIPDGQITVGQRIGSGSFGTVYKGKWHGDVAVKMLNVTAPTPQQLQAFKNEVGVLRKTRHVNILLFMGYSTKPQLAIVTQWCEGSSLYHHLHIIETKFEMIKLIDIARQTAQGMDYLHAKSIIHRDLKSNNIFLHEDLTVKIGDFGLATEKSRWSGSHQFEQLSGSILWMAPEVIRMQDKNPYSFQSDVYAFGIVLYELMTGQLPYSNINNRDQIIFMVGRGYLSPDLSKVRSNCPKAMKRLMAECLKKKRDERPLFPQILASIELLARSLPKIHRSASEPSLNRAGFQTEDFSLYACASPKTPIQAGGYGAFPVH

For this assay, the target named is B-Raf (V600E)-kinase (Homo sapiens (Human), UniProt P15056, V600E). Nature of the assay: Kinase test B-RAF (V600E). It counts as biochemical. The note with it: B-RAF (V600E) kinase test, 250 μM ATP. In a few lines:
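Read-out is DELFIA europium TRF of phospho-MEK (Ser217/221) on biotinylated MEK1 bound to streptavidin plates, IC50 from dose-response. Reaction ran 60 min at RT with 250 μM ATP, after a 24 h RT preincubation of compound with B-Raf (V600E) kinase, 5% DMSO final.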
`Cc1cn(-c2ncc3ncnc(Nc4cc(C(=O)Nc5cc(C(C)(C)C)on5)ccc4C)c3n2)cn1` [III-367]: the pIC50 is 8.70. As for `Cc1ccc(C(=O)Nc2cc(C(C)(C)C)on2)cc1Nc1ncnc2cnc(N3C[C@@H](C)O[C@@H](C)C3)nc12` [III-368], the negative-log IC50 (pIC50) is 7.85.

The compound `Cc1ccc(C(=O)Nc2cc(C(C)(C)C)on2)cc1Nc1ncnc2cnc(N3CCCOCC3)nc12` [III-369] had a negative-log IC50 (pIC50) of 8.70. Next, `Cc1ccc(C(=O)Nc2cc(C(C)(C)C)on2)cc1Nc1ncnc2cnc(N3CCN(CCN4CCOCC4)CC3)nc12` [III-370]: 9.00. For `Cc1cc(C(=O)Nc2cc(C(C)(C)C)nn2C)cc(Nc2ncnc3cnc(N4CCOCC4)nc23)c1C` [III-372], the pIC50 was 8.30.

With `Cc1cc(C(=O)Nc2cc(C(C)(C)C)nn2C)cc(Nc2ncnc3cnc(N4CCN(C)CC4)nc23)c1C` [III-373], the negative logarithm of the IC50 (pIC50) was 8.10. The result for `Cn1nc(C(C)(C)C)cc1NC(=O)c1cc(Cl)cc(Nc2ncnc3cnc(N4CCCC4)nc23)c1Cl` [III-374] reads 5.70; that for `Cn1nc(C(C)(C)C)cc1NC(=O)c1cc(Cl)cc(Nc2ncnc3cnc(N4CCOCC4)nc23)c1Cl` [III-375], 5.70. Next, `Cn1nc(C(C)(C)C)cc1NC(=O)c1cc(Cl)cc(Nc2ncnc3cnc(N4CCOCC4)nc23)c1` [III-376]: 8.15; `Cn1nc(C(C)(C)C)cc1NC(=O)c1cc(Cl)cc(Nc2ncnc3cnc(N4CCCC4)nc23)c1` [III-377]: 8.40; `CN1CCN(c2ncc3ncnc(Nc4cc(Cl)cc(C(=O)Nc5cc(C(C)(C)C)nn5C)c4)c3n2)CC1` [III-378]: 8.10.

For `CN(C)C1CCN(c2ncc3ncnc(Nc4cc(Cl)cc(C(=O)Nc5cc(C(C)(C)C)nn5C)c4)c3n2)C1` (stereo not drawn) [III-379], the pIC50 is 8.22. For `O=C(NC1CCOC1)c1ccc(F)c(Nc2ncnc3cnc(NC4CCOC4)nc23)c1` (stereo not drawn) [III-380], the pIC50 is 5.85. `CC(C)(C)c1cc(NC(=O)c2ccc(F)c(Nc3ncnc4cnc(NC5CCOC5)nc34)c2)no1` (stereo not drawn) [III-381] showed a pIC50 of 8.52. Next, `CN1CCN(c2cc(NC(=O)c3ccc(F)c(Nc4ncnc5cnc(N6CCOCC6)nc45)c3)cc(C(F)(F)F)c2)CC1` [III-382]: greater than 9.00.

For `CC(C)(C#N)c1cccc(NC(=O)c2ccc(F)c(Nc3ncnc4cnc(N5CCOCC5)nc34)c2)c1` [III-383], the pIC50 is 8.40. In turn, `Cn1nc(C(C)(C)C)cc1NC(=O)c1ccc(F)c(Nc2ncnc3cnc(N4CCOCC4)nc23)c1` [III-384] had a negative-log IC50 (pIC50) of 8.70.

The compound `CN1CCN(c2cc(NC(=O)c3ccc(F)c(Nc4ncnc5cnc(N6CCOCC6)nc45)c3)cc(C(F)(F)F)c2F)CC1` [III-385] showed a negative logarithm of the IC50 (pIC50) of 8.70. `CC(C)(C#N)c1cccc(NC(=O)c2ccc(F)c(Nc3ncnc4cnc(NC5CCOC5)nc34)c2)c1` (stereo not drawn) [III-386] showed a negative-log IC50 (pIC50) of 9.00. Compound `Cn1nc(C(C)(C)C)cc1NC(=O)c1ccc(F)c(Nc2ncnc3cnc(NC4CCOC4)nc23)c1` (stereo not drawn) [III-387] gave a pIC50 of 8.70.

For the compound `CN1CCN(c2cc(NC(=O)c3ccc(F)c(Nc4ncnc5cnc(NC6CCOC6)nc45)c3)cc(C(F)(F)F)c2)CC1` (stereo not drawn) [III-388], the negative-log IC50 (pIC50) is greater than 9.00.

Consider `CN1CCN(c2cc(NC(=O)c3ccc(F)c(Nc4ncnc5cnc(NC6CCOC6)nc45)c3)cc(C(F)(F)F)c2F)CC1` (stereo not drawn) [III-389], for which the pIC50 is greater than 9.00. As for `COc1ccc(NC(=O)c2ccc(F)c(Nc3ncnc4cnc(NC5CCOC5)nc34)c2)cc1C(F)(F)F` (stereo not drawn) [III-390], the pIC50 was greater than 9.00. `CC(C)(C)c1cc(NC(=O)c2ccc(F)c(Nc3ncnc4cnc(N5CCOCC5)nc34)c2)[nH]n1` [III-391] showed a pIC50 of 9.00. With `CC(C)(C)c1cc(NC(=O)c2ccc(F)c(Nc3ncnc4cnc(NC5CCOC5)nc34)c2)[nH]n1` (stereo not drawn) [III-392], the negative-log IC50 (pIC50) is 8.52. Take `O=C(Nc1cc(C(F)(F)F)ccn1)c1ccc(F)c(Nc2ncnc3cnc(N4CCOCC4)nc23)c1` [III-393]: the pIC50 is 9.00. Take `CN1CCC(CN2CCN(c3ncc4ncnc(Nc5cc(C(=O)Nc6cc(C(C)(C)C)on6)ccc5F)c4n3)CC2)CC1` [III-394]: the negative logarithm of the IC50 (pIC50) is 9.00.

`COCCN1CCN(c2ncc3ncnc(Nc4cc(C(=O)Nc5cc(C(C)(C)C)on5)ccc4F)c3n2)CC1` [III-395]: the pIC50 was 8.40. The result for `CC(C)N1CCN(c2ncc3ncnc(Nc4cc(C(=O)Nc5cc(C(C)(C)C)on5)ccc4F)c3n2)CC1` [III-396] reads 8.52.

For the compound `CC(C)(C)c1cc(NC(=O)c2ccc(F)c(Nc3ncnc4cnc(N5CCN(CC6CC6)CC5)nc34)c2)no1` [III-397], the pIC50 was 8.40. Next, `CCN1CCN(c2ncc3ncnc(Nc4cc(C(=O)Nc5cc(C(C)(C)C)on5)ccc4F)c3n2)CC1` [III-398]: 9.00. Compound `CN(C)C1CCN(c2ncc3ncnc(Nc4cc(C(=O)Nc5cc(C(C)(C)C)on5)ccc4F)c3n2)C1` (stereo not drawn) [III-399] showed a negative logarithm of the IC50 (pIC50) of 8.70. The result for `CN1CCC(N(C)c2ncc3ncnc(Nc4cc(C(=O)Nc5cc(C(C)(C)C)on5)ccc4F)c3n2)C1` (stereo not drawn) [III-400] reads 8.40. In turn, `CN(C)C1CCN(c2ncc3ncnc(Nc4cc(C(=O)Nc5cc(C(C)(C)C)on5)ccc4F)c3n2)CC1` [III-401] gave a pIC50 of 8.52.

`COCCN1CCN(c2ncc3ncnc(Nc4cc(C(=O)Nc5ccc(OC)c(C(F)(F)F)c5)ccc4F)c3n2)CC1` [III-402] had a negative logarithm of the IC50 (pIC50) of 8.70.

Turning to `COc1ccc(NC(=O)c2ccc(F)c(Nc3ncnc4cnc(N5CCN(C(C)C)CC5)nc34)c2)cc1C(F)(F)F` [III-403], the pIC50 is 8.52.

Take `COc1ccc(NC(=O)c2ccc(F)c(Nc3ncnc4cnc(N5CCN(CC6CC6)CC5)nc34)c2)cc1C(F)(F)F` [III-404]: the pIC50 is 8.22.

For the compound `CCN1CCN(c2ncc3ncnc(Nc4cc(C(=O)Nc5ccc(OC)c(C(F)(F)F)c5)ccc4F)c3n2)CC1` [III-405], the pIC50 was 8.30. In turn, `Cc1ccc(C(=O)Nc2cc(N(C)CCN(C)C)cc(C(F)(F)F)c2)cc1Nc1ncnc2cnc(N(C)CC3CCCCO3)nc12` (stereo not drawn) [III-407] gave a pIC50 of 8.00. For `CCN1CCN(c2cc(NC(=O)c3ccc(C)c(Nc4ncnc5cnc(N(C)CC6CCCCO6)nc45)c3)cc(C(F)(F)F)c2)CC1` (stereo not drawn) [III-408], the negative-log IC50 (pIC50) is 7.60. Regarding `COc1ccc(NC(=O)c2ccc(C)c(Nc3ncnc4cnc(N(C)CC5CCCCO5)nc34)c2)cc1C(F)(F)F` (stereo not drawn) [III-409], the pIC50 is 8.05. The result for `Cc1ccc(C(=O)Nc2cccc(OC(F)(F)F)c2)cc1Nc1ncnc2cnc(N3CCOCC3)nc12` [III-410] reads 9.00; that for `COc1ccc(NC(=O)c2ccc(C)c(Nc3ncnc4cnc(N5CC[C@H](F)C5)nc34)c2)cc1C(F)(F)F` [III-411], 8.52; that for `Cc1ccc(C(=O)Nc2cc(C(C)(C)C)on2)cc1Nc1ncnc2cnc(N3CC[C@H](F)C3)nc12` [III-412], 8.30. On to `COc1ccc(C(F)(F)F)cc1NC(=O)c1ccc(C)c(Nc2ncnc3cnc(N4CCN(CC5CCN(C)CC5)CC4)nc23)c1` [III-413], for which the negative-log IC50 (pIC50) was greater than 9.00. Compound `Cc1ccc(C(=O)Nc2cc(C(C)(C)C)nn2C)cc1Nc1ncnc2cnc(N3CCN(CC4CCN(C)CC4)CC3)nc12` [III-414] gave a negative-log IC50 (pIC50) of 8.15. As to `COc1ccc(C(C)(C)C)cc1NC(=O)c1ccc(C)c(Nc2ncnc3cnc(N4CCN(CC5CCN(C)CC5)CC4)nc23)c1` [III-415], the negative logarithm of the IC50 (pIC50) was 8.52. Consider `Cc1ccc(C(=O)Nc2cccc(C(C)(C)C)c2)cc1Nc1ncnc2cnc(N3CCN(CC4CCN(C)CC4)CC3)nc12` [III-416], for which the pIC50 was 9.00.
